The results in this text go back to US11214803B2, “Modulators of YAP1 expression” (Ionis Pharmaceuticals, Inc., priority 2019, dated 2022).

Strand notation (5' to 3'): a small letter for the sugar, then the base; units joined by * are phosphorothioate-linked, units joined directly phosphodiester-linked; [ ] holds rarer units or linkages, { } end groups; capitals alone tell only the bases. e = 2'-O-(2-methoxyethyl) (MOE); k = constrained ethyl (cEt); [5mC] = 5-methylcytosine; d = 2'-deoxy (DNA); m = 2'-O-methyl

The first series concerns Yap1 mRNA. In words: Antisense inhibition of human Yap1 in SNU-449 cells by modified oligonucleotides, single dose (Example 5, RTS36584). The note with it: Table 39; SNU-449 cells, 10,000 cells per well, free uptake, 2,000 nM oligonucleotide, approx. 48 hours; RTS36584; normalized to RIBOGREEN; Yap1 mRNA relative to untreated control. The format is cell-based. The method in brief:
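Values are Yap1 mRNA as percent of untreated control cells, measured by quantitative real-time RT-PCR using RTS36584 and normalised to total RNA by RIBOGREEN. Cells were SNU-449, dosed by free uptake at 2,000 nM for approximately 48 hours.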
Regarding “1198410 (kA*dT*dA*dG*dT*dG*d[5mC]*dT*dT*dT*dG*kG*eA*kA*eG*kA; antisense) [Compound 1198410]”, the “YAP1 (% UTC)” value came to 48 % UTC.
In the case of “1198437 (kT*dT*dT*dA*dT*dG*dT*dA*dA*dT*dA*kT*eT*kG*e[5mC]*kA; antisense) [Compound 1198437]”, the “YAP1 (% UTC)” value is listed as 63 % UTC.

Staying with this series, now noted: Table 40 (separate experiment); SNU-449 cells, 10,000 cells per well, free uptake, 2,000 nM oligonucleotide, approx. 48 hours; RTS36584; normalized to RIBOGREEN; Yap1 mRNA relative to untreated control.
As for “1198726 (kT*eT*kA*dG*dA*dG*dT*dA*dT*dG*dT*dG*eG*e[5mC]*kA*kA; antisense) [Compound 1198726]”, the “YAP1 (% UTC)” value is given as 28 % UTC.
Same read-out and setting: for “1198752 (kT*eT*kT*dG*dG*dA*dA*dG*dA*dT*d[5mC]*dT*eG*eA*kA*kA; antisense) [Compound 1198752]” the value was 111 % UTC; for “1198803 (antisense kT*eT*kA*dG*dA*d[5mC]*dT*dA*dA*dG*dT*dA*eA*eG*kG*kT) [Compound 1198803]”, 62 % UTC.

Still in this series, the particulars now being: Table 41; SNU-449 cells, 10,000 cells per well, free uptake, 2,000 nM modified oligonucleotide, approximately 48 hours; RTS36584; normalized to RIBOGREEN; Yap1 mRNA relative to untreated control cells.
With “1198638 (kA*kG*dA*dG*dT*dA*dT*dG*dT*dG*dG*d[5mC]*kA*eA*kT*eA; antisense) [Compound 1198638]”, the “YAP1 (% UTC)” value was 18 % UTC.
In the case of “1198640 (kT*kT*dA*dG*dA*dG*dT*dA*dT*dG*dT*dG*kG*e[5mC]*kA*eA; antisense) [Compound 1198640]”, the “YAP1 (% UTC)” value was 26 % UTC.
With “1198769 (kT*eT*kA*dT*dA*dT*dG*dG*dT*dT*dT*dT*eG*eT*kG*kT; antisense) [Compound 1198769]”, the “YAP1 (% UTC)” value amounted to 77 % UTC.
In the case of “1198635 (kA*kT*dG*dG*dA*dA*dA*dT*dT*dG*dT*d[5mC]*kT*e[5mC]*kA*eT; antisense) [Compound 1198635]”, the “YAP1 (% UTC)” value amounted to 57 % UTC.
Still for that read-out and setting: for “1198629 (kA*kT*dT*dG*dT*d[5mC]*dT*d[5mC]*dA*dT*dG*d[5mC]*k[5mC]*eT*kT*eA; antisense) [Compound 1198629]” the value was 22 % UTC; for “1198772 (k[5mC]*eT*k[5mC]*dT*dT*dA*dT*dA*dT*dG*dG*dT*eT*eT*kT*kG; antisense) [Compound 1198772]”, 41 % UTC; for “1198667 (antisense kA*kG*dT*dG*d[5mC]*dT*dT*dT*dG*dG*dA*dA*kG*eA*kT*e[5mC]) [Compound 1198667]”, 40 % UTC.
Consider “1198792 (antisense kT*eT*kT*dA*dA*dA*dG*dT*dG*dT*dA*dT*eG*eT*k[5mC]*kA) [Compound 1198792]”, for which the “YAP1 (% UTC)” value turned out to be 48 % UTC.

The same series, now with this note: Table 42 (separate experiment); SNU-449 cells, 10,000 cells per well, free uptake, 2,000 nM modified oligonucleotide, approximately 48 hours; RTS36584; normalized to RIBOGREEN; Yap1 mRNA relative to untreated control cells.
Regarding “1198212 (kT*kA*dT*dT*dA*dG*dA*dG*dT*dA*dT*eG*eT*eG*kG*k[5mC]; antisense) [Compound 1198212]”, the “YAP1 (% UTC)” value is listed as 17 % UTC.
As to “1198646 (kT*kA*dT*dA*dA*d[5mC]*dT*dG*dG*dG*d[5mC]*dA*kA*eA*kT*eT) [Compound 1198646]”, the “YAP1 (% UTC)” value was 80 % UTC.
On the same count and under the same terms, for “1198214 (kT*kA*dT*dA*dT*dT*dA*dG*dA*dG*dT*eA*eT*eG*kT*kG; antisense) [Compound 1198214]” the value was 91 % UTC.

The series is the same for the next values; noted with them: Table 43 experiment; SNU-449 cells, 10,000 cells per well, free uptake, 2,000 nM, approximately 48 hours; RTS36584; Yap1 mRNA normalized to RIBOGREEN, relative to untreated control cells.
“1198469 (antisense kA*kT*dT*dA*dG*dA*dG*dT*dA*dT*dG*eT*kG*eG*k[5mC]*eA) [Compound 1198469]”: the “YAP1 (% UTC)” value is listed as 23 % UTC.
Turning to “1198283 (kT*kT*dA*dG*dA*d[5mC]*dT*dA*dA*dG*dT*eA*eA*eG*kG*kT; antisense) [Compound 1198283]”, the “YAP1 (% UTC)” value is 99 % UTC.
As for “1198277 (kA*kA*dG*dT*dA*dA*dG*dG*dT*dT*dT*e[5mC]*e[5mC]*e[5mC]*kA*kG; antisense) [Compound 1198277]”, the “YAP1 (% UTC)” value is on record as 32 % UTC.
On to “1198268 (kA*kA*dG*dT*dG*dT*dA*dT*dG*dT*d[5mC]*eA*eG*eA*kA*kG; antisense) [Compound 1198268]”, for which the “YAP1 (% UTC)” value came to 11 % UTC.
As to “1198281 (kG*kA*d[5mC]*dT*dA*dA*dG*dT*dA*dA*dG*eG*eT*eT*kT*k[5mC]; antisense) [Compound 1198281]”, the “YAP1 (% UTC)” value worked out at 71 % UTC.
Same read-out and setting: for “1198267 (kA*kG*dT*dG*dT*dA*dT*dG*dT*d[5mC]*dA*eG*eA*eA*kG*kA; antisense) [Compound 1198267]” the value was 7 % UTC.

The series is the same for the next values; noted with them: Table 44 experiment; SNU-449 cells, 10,000 cells per well, free uptake, 2,000 nM, approximately 48 hours; RTS36584; Yap1 mRNA normalized to RIBOGREEN, relative to untreated control cells.
As to “1198493 (antisense kT*kG*d[5mC]*dT*dT*dT*dG*dG*dA*dA*dG*eA*kT*e[5mC]*kT*eG) [Compound 1198493]”, the “YAP1 (% UTC)” value came to 28 % UTC.
Same read-out and setting: for “1198502 (kA*kG*dA*dT*dT*dT*dA*dG*dG*dA*dT*eG*k[5mC]*eA*kT*eG; antisense) [Compound 1198502]” the value was 16 % UTC.

The same series, now with this note: Table 45; Yap1 mRNA as percent of untreated control, SNU-449 cells, single dose.
Take “1198909 (kG*kG*dT*dA*dT*dA*dA*d[5mC]*dT*dG*dG*kG*d[5mC]*kA*dA*kA; antisense) [Compound 1198909]”: the “YAP1 (% UTC)” value is recorded as 56 % UTC.
Turning to “1198920 (kA*kA*dG*d[5mC]*dA*d[5mC]*dT*dT*dT*dT*dA*k[5mC]*dA*kT*dT*kA; antisense) [Compound 1198920]”, the “YAP1 (% UTC)” value was determined as 54 % UTC.
Same read-out and setting: for “1198908 (kT*kA*dT*dA*dA*d[5mC]*dT*dG*dG*dG*d[5mC]*kA*dA*kA*dT*kT; antisense) [Compound 1198908]” the value was 124 % UTC.
For the substance “1095491 (antisense kA*k[5mC]*dT*dG*dA*dG*dG*dT*dA*dT*dA*kA*d[5mC]*kT*dG*kG) [Compound 1095491]”, the “YAP1 (% UTC)” value is 65 % UTC.

Still in this series, the particulars now being: Table 46; Yap1 mRNA as percent of untreated control, SNU-449 cells, single dose.
As to “1198842 (kG*kT*dG*d[5mC]*dT*dT*dT*dG*dG*dA*dA*kG*eA*kT*e[5mC]*kT; antisense) [Compound 1198842]”, the “YAP1 (% UT)” value is on record as 37 % UT.
On to “1198831 (k[5mC]*kA*d[5mC]*dT*dT*dT*dT*dA*d[5mC]*dA*dT*kT*eA*kG*eG*kA; antisense) [Compound 1198831]”, for which the “YAP1 (% UT)” value was found to be 12 % UT.
Turning to “1198849 (kG*kA*dT*dT*dT*dA*dG*dG*dA*dT*dG*k[5mC]*eA*kT*eG*kG; antisense) [Compound 1198849]”, the “YAP1 (% UT)” value is on record as 42 % UT.
For “1095407 (antisense kA*k[5mC]*dT*dG*dA*dG*dG*dT*dA*dT*dA*kA*e[5mC]*kT*eG*kG) [Compound 1095407]”, the “YAP1 (% UT)” value turned out to be 54 % UT.

Staying with this series, now noted: Table 48; Yap1 mRNA level relative to untreated control; modified oligonucleotides targeting SEQ ID NO.: 1 and 2.
Consider “1198300 (kT*kA*kT*dA*dT*dT*dA*dG*dA*dG*dT*dA*kT*eG*kT*eG; antisense) [Compound 1198300]”, for which the “YAP1 (% UT)” value came out at 60 % UT.
On to “1198329 (kG*kA*kT*dT*dT*dA*dG*dG*dA*dT*dG*d[5mC]*kA*eT*kG*eG; antisense) [Compound 1198329]”, for which the “YAP1 (% UT)” value worked out at 36 % UT.

Still in this series, the particulars now being: Table 49; Yap1 mRNA level relative to untreated control; modified oligonucleotides targeting SEQ ID NO.: 1 and 2.
For “1198359 (k[5mC]*kT*kT*dT*dA*dA*dA*dG*dT*dG*dT*dA*kT*eG*kT*e[5mC]; antisense) [Compound 1198359]”, the “YAP1 (% UT)” value came out at 28 % UT.
As to “1198548 (antisense kT*kG*kG*dA*dA*dA*dT*dT*dG*dT*d[5mC]*dT*k[5mC]*kA*kT*eG) [Compound 1198548]”, the “YAP1 (% UT)” value came to 26 % UT.
As for “1198360 (kA*kA*k[5mC]*dT*dT*dT*dA*dA*dA*dG*dT*dG*kT*eA*kT*eG; antisense) [Compound 1198360]”, the “YAP1 (% UT)” value is given as 74 % UT.

The series is the same for the next values; noted with them: Table 50; Yap1 mRNA remaining as percent of untreated control (UT), SNU-449 cells, single dose.
Regarding “1198586 (antisense kA*kT*kT*dT*dA*dG*dG*dA*dT*dG*d[5mC]*dA*kT*kG*kG*eT) [Compound 1198586]”, the “YAP1 (% UT)” value is given as 96 % UT.
Turning to “1197286 (kA*kT*kA*dT*mU*dA*dG*dA*dG*dT*dA*dT*dG*kT*kG*kG) [Compound 1197286]”, the “YAP1 (% UT)” value turned out to be 43 % UT.
Consider “1198608 (antisense kT*kA*kT*dG*dT*dA*dA*dT*dA*dT*dT*dG*k[5mC]*kA*kA*eT) [Compound 1198608]”, for which the “YAP1 (% UT)” value is listed as 83 % UT.

Staying with this series, now noted: Table 51; Yap1 mRNA remaining as percent of untreated control (UT), SNU-449 cells, single dose.
On to “1197271 (kT*kT*kT*dA*mA*dA*dG*dT*dG*dT*dA*dT*dG*kT*k[5mC]*kA) [Compound 1197271]”, for which the “YAP1 (% UT)” value was 12 % UT.
Regarding “1197289 (kG*kG*kT*dA*mU*dA*dA*d[5mC]*dT*dG*dG*dG*d[5mC]*kA*kA*kA) [Compound 1197289]”, the “YAP1 (% UT)” value came out at 48 % UT.
For “1200797 (kA*kT*kT*dA*dG*mA*dG*dT*dA*dT*dG*dT*dG*kG*k[5mC]*kA; antisense) [Compound 1200797]”, the “YAP1 (% UT)” value is listed as 11 % UT.
For “1197267 (kA*kT*kG*dT*mA*dA*dT*dA*dT*dT*dG*d[5mC]*dA*kA*kT*k[5mC]) [Compound 1197267]”, the “YAP1 (% UT)” value stood at 62 % UT.

Staying with this series, now noted: Table 52; Yap1 mRNA, modified oligonucleotides targeting SEQ ID NO: 1 and 2.
Take “1200841 (kT*k[5mC]*kT*dT*dA*mU*dA*dT*dG*dG*dT*dT*dT*kT*kG*kT; antisense) [Compound 1200841]”: the “YAP1 (% UT)” value was 76 % UT.

The series is the same for the next values; noted with them: Yap1 mRNA, percent of untreated control; modified oligonucleotides targeting SEQ ID NO: 1 and 2; Table 47.
In the case of “1197220 (antisense kT*kA*kA*dG*dG*dT*dT*dT*d[5mC]*d[5mC]*d[5mC]*dA*dG*kA*kT*kT) [Compound 1197220]”, the “YAP1 (% UT)” value came to 32 % UT.
